Laboratory results taken from patent publication US9409905B2, “Antibacterial compounds and methods for use” (PTC THERAPEUTICS, INC., priority 2011, dated 2016).
Values after ≈ are worked out from the molar mass of the structure shown.

Columns and labels:
[1] = tested on: Escherichia coli (E. coli) BAS849; assay: Antibacterial activity, microbroth dilution MIC (Table 1); format: cell-based; details: microbroth dilution, super sensitive Gram-negative E. coli BAS849, read-out: MIC, BAS849
Procedure, shortened: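 MIC (μg/mL) is taken as the lowest concentration with no macroscopically visible growth. Strains tested by microbroth dilution: Gram-positive S. aureus 29213, control Gram-negative E. coli 25922, and super-sensitive E. coli BAS849.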

[2] = tested on: Staphylococcus aureus (S. aureus) 29213; assay: as above; format: cell-based; details: microbroth dilution, Gram-positive S. aureus 29213, read-out: MIC, 29213
Procedure, shortened: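 In a microbroth dilution test, the minimum inhibitory concentration was defined as the lowest compound level preventing growth seen by eye, and was given in μg/mL.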

[3] = tested on: E. coli 25922; assay: as above; format: cell-based, Escherichia coli; details: Escherichia coli; microbroth dilution; control Gram-negative E. coli 25922 strain; read-out: MIC, 25922
Procedure, shortened: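 Potency is reported as minimum inhibitory concentration in μg/mL, determined by broth microdilution as the lowest level of compound that stops growth visible to the eye.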

[4] = tested on: E. coli LZ3111; assay: Antibacterial activity, MIC, quinolone resistant strain (Table 2); format: cell-based; details: Escherichia coli, LZ3111, read-out: MIC LZ3111
Procedure, shortened: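 Broth microdilution. Read-out: MIC in μg/mL, taken as lowest concentration with no macroscopically visible growth.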

[5] = tested on: E. coli ELZ4000; assay: Antibacterial activity, MIC, multi-drug resistant clinical isolate (Table 3); format: cell-based; details: Escherichia coli, ELZ4000, read-out: MIC ELZ4000
Procedure, shortened: (§1)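 MIC (μg/mL) read as lowest concentration with no macroscopically visible growth, determined by microbroth dilution.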

[6] = tested on: E. coli ELZ4251; assay: as above; format: cell-based; details: Escherichia coli
Procedure, shortened: as §1

[7] = tested on: Pseudomonas aeruginosa (P. aeruginosa) 27853; assay: Antibacterial activity, MIC (Table 5); format: cell-based; details: P. aeruginosa 27853, read-out: MIC, 27853
Procedure, shortened: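 Microbroth dilution; MIC (μg/mL) = lowest concentration with no macroscopically visible growth.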

[8] = tested on: Haemophilus influenzae (H. influenzae) 49247; assay: Antibacterial activity, MIC (Table 6); format: cell-based
Excerpt: (§2) The antibacterial activity from a microbroth dilution method may be presented as the minimum inhibitory concentration (MIC in μg/mL). The MIC value is the lowest concentration of drug which prevents macroscopically visible growth under test conditions.
(§3) Antibacterial activity of test compounds against the Gram-negative bacteria Haemophilus influenzae (H. influenzae) 49247 is shown in Table 6, Moraxella catarrhalis (M. catarrhalis) 25238 is shown in Table 7 and Neisseria meningitidis (N. meningitidis) 13090 is shown in Table 8.

[9] = tested on: Neisseria meningitidis (N. meningitidis) 13090; assay: Antibacterial activity, MIC (Table 8); format: cell-based
Excerpt: as §2, §3

[10] = tested on: Acinetobacter baumannii (A. baumannii) BAA747; assay: Antibacterial activity, MIC (Table 4); format: cell-based; details: A. baumannii BAA747, read-out: MIC, BAA747
Procedure, shortened: (§4)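 Values are minimum inhibitory concentrations in μg/mL from broth microdilution, meaning no macroscopically visible growth at that concentration. Resistant MXX isolates are multi-drug resistant clinical strains.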

[11] = tested on: Klebsiella pneumoniae (K. pneumoniae) 35657; assay: Antibacterial activity, MIC (Table 4); format: cell-based; details: K. pneumoniae 35657, read-out: MIC, 35657
Procedure, shortened: as §4

[12] = tested on: A. baumannii MXX2240; assay: Antibacterial activity, MIC, resistant strain (Table 4); format: cell-based; details: Acinetobacter baumannii, MXX2240; resistant A. baumannii MMX2240, multi-drug resistant clinical isolate; read-out: MIC, MMX2240
Procedure, shortened: as §4

[13] = tested on: K. pneumoniae MXX1232; assay: as above; format: cell-based; details: Klebsiella pneumoniae, MXX1232; resistant K. pneumoniae MMX1232, multi-drug resistant clinical isolate; read-out: MIC, MMX1232
Procedure, shortened: as §4

| Structure (SMILES) | MIC [1] [µg/mL] | MIC [2] [µg/mL] | MIC [3] [µg/mL] | MIC [4] [µg/mL] | MIC [5] [µg/mL] | MIC [6] [µg/mL] | MIC [7] [µg/mL] | MIC [8] [µg/mL] | MIC [9] [µg/mL] | MIC [10] [µg/mL] | MIC [11] [µg/mL] | MIC [12] [µg/mL] | MIC [13] [µg/mL] |
| --- | --- | --- | --- | --- | --- | --- | --- | --- | --- | --- | --- | --- | --- |
| CCc1cc(C(=O)O)c(=O)[nH]c1-c1ccc2c(c1)CCCN2C [Cpd 1, 5-ethyl-6-(1-methyl-1,2,3,4-tetrahydroquinolin-6-yl)-2-oxo-1,2-dihydropyridine-3-carboxylic acid] | < 1 | 12.5 to 150 (≈ 40 to 480 µM) | 1 to 3.5 (≈ 3.2 to 11.2 µM) | 12.5 to 150 (≈ 40 to 480 µM) | 12.5 to 150 (≈ 40 to 480 µM) | 12.5 to 150 (≈ 40 to 480 µM) | 12.5 to 150 (≈ 40 to 480 µM) | < 1 | < 1 | – | – | – | – |
| CCc1c(-c2ccc3c(c2)CCCN3C)[nH]c(=O)c(C(=O)O)c1O [Cpd 2, 5-ethyl-4-hydroxy-6-(1-methyl-1,2,3,4-tetrahydroquinolin-6-yl)-2-oxo-1,2-dihydropyridine-3-carboxylic acid] | < 1 | 3.5 to 12.5 (≈ 10.7 to 38.1 µM) | 12.5 to 150 (≈ 38.1 to 457 µM) | – | – | – | – | < 1 | < 1 | – | – | – | – |
| CCc1cc(C(=O)O)c(=O)[nH]c1-c1ccc2c(c1)OCCN2C [Cpd 3, 5-ethyl-6-(4-methyl-3,4-dihydro-2H-benzo[b][1,4]oxazin-7-yl)-2-oxo-1,2-dihydropyridine-3-carboxylic acid] | < 1 | 12.5 to 150 (≈ 39.8 to 477 µM) | 1 to 3.5 (≈ 3.18 to 11.1 µM) | 12.5 to 150 (≈ 39.8 to 477 µM) | 12.5 to 150 (≈ 39.8 to 477 µM) | 12.5 to 150 (≈ 39.8 to 477 µM) | 12.5 to 150 (≈ 39.8 to 477 µM) | < 1 | – | 3.5 to 12.5 (≈ 11.1 to 39.8 µM) | 3.5 to 12.5 (≈ 11.1 to 39.8 µM) | 12.5 to 150 (≈ 39.8 to 477 µM) | 12.5 to 150 (≈ 39.8 to 477 µM) |
| CCc1c(-c2ccc3c(c2)OCCN3C)[nH]c(=O)c(C(=O)O)c1O [Cpd 4, 5-ethyl-4-hydroxy-6-(4-methyl-3,4-dihydro-2H-benzo[b][1,4]oxazin-7-yl)-2-oxo-1,2-dihydropyridine-3-carboxylic acid] | < 1 | 3.5 to 12.5 (≈ 10.6 to 37.8 µM) | 3.5 to 12.5 (≈ 10.6 to 37.8 µM) | 3.5 to 12.5 (≈ 10.6 to 37.8 µM) | 3.5 to 12.5 (≈ 10.6 to 37.8 µM) | 3.5 to 12.5 (≈ 10.6 to 37.8 µM) | 12.5 to 150 (≈ 37.8 to 454 µM) | < 1 | – | 1 to 3.5 (≈ 3.03 to 10.6 µM) | 3.5 to 12.5 (≈ 10.6 to 37.8 µM) | 1 to 3.5 (≈ 3.03 to 10.6 µM) | 12.5 to 150 (≈ 37.8 to 454 µM) |
| CCc1cc(C(=O)O)c(=O)[nH]c1-c1ccc2c(c1)CCN2C [Cpd 5, 5-ethyl-6-(1-methylindolin-5-yl)-2-oxo-1,2-dihydropyridine-3-carboxylic acid] | < 1 | 12.5 to 150 (≈ 41.9 to 503 µM) | 3.5 to 12.5 (≈ 11.7 to 41.9 µM) | 12.5 to 150 (≈ 41.9 to 503 µM) | 12.5 to 150 (≈ 41.9 to 503 µM) | 12.5 to 150 (≈ 41.9 to 503 µM) | 12.5 to 150 (≈ 41.9 to 503 µM) | < 1 | < 1 | 1 to 3.5 (≈ 3.35 to 11.7 µM) | 3.5 to 12.5 (≈ 11.7 to 41.9 µM) | 12.5 to 150 (≈ 41.9 to 503 µM) | 12.5 to 150 (≈ 41.9 to 503 µM) |
| CCc1c(-c2ccc3c(c2)CCN3C)[nH]c(=O)c(C(=O)O)c1O [Cpd 6, 5-ethyl-4-hydroxy-6-(1-methylindolin-5-yl)-2-oxo-1,2-dihydropyridine-3-carboxylic acid] | < 1 | 3.5 to 12.5 (≈ 11.1 to 39.8 µM) | 3.5 to 12.5 (≈ 11.1 to 39.8 µM) | 12.5 to 150 (≈ 39.8 to 477 µM) | 12.5 to 150 (≈ 39.8 to 477 µM) | 12.5 to 150 (≈ 39.8 to 477 µM) | 12.5 to 150 (≈ 39.8 to 477 µM) | < 1 | < 1 | 1 to 3.5 (≈ 3.18 to 11.1 µM) | 12.5 to 150 (≈ 39.8 to 477 µM) | 1 to 3.5 (≈ 3.18 to 11.1 µM) | 12.5 to 150 (≈ 39.8 to 477 µM) |
| CCc1c(-c2ccc3c(ccn3CC)c2)[nH]c(=O)c(C(=O)O)c1O [Cpd 10, 5-ethyl-6-(1-ethyl-1H-indol-5-yl)-4-hydroxy-2-oxo-1,2-dihydropyridine-3-carboxylic acid] | < 1 | 1 to 3.5 (≈ 3.06 to 10.7 µM) | 3.5 to 12.5 (≈ 10.7 to 38.3 µM) | 12.5 to 150 (≈ 38.3 to 460 µM) | 12.5 to 150 (≈ 38.3 to 460 µM) | 12.5 to 150 (≈ 38.3 to 460 µM) | – | < 1 | < 1 | – | – | – | – |
| CCc1cc(C(=O)O)c(=O)[nH]c1-c1ccc2c(ccn2C)c1 [Cpd 21, 5-ethyl-6-(1-methyl-1H-indol-5-yl)-2-oxo-1,2-dihydropyridine-3-carboxylic acid] | < 1 | 3.5 to 12.5 (≈ 11.8 to 42.2 µM) | < 1 | 12.5 to 150 (≈ 42.2 to 506 µM) | 12.5 to 150 (≈ 42.2 to 506 µM) | 12.5 to 150 (≈ 42.2 to 506 µM) | 12.5 to 150 (≈ 42.2 to 506 µM) | < 1 | < 1 | < 1 | < 1 | 12.5 to 150 (≈ 42.2 to 506 µM) | 12.5 to 150 (≈ 42.2 to 506 µM) |
